Structures can show the parent of a compound that is named as a salt.
What was measured:
[1] = Distribution, metabolism and excretion of cocaine
mice = settings: cited from earlier work
[2] = cited from earlier work
experimental animals = settings: cited from earlier work
mucous membranes = experiment: Topical anesthesia of mucous membranes by pledget administration; format: in vivo, human; settings: applied to mucous membranes by pledget, depends on concentration, vascularity
Description: When applied to mucous membranes by pledget administration, topical anesthesia develops rapidly and persists for 30 minutes or longer depending on the concentration of cocaine HCl solution used, the dose, and on the vascularity of the tissue.

## COC(=O)[C@H]1[C@@H](OC(=O)c2ccccc2)C[C@@H]2CC[C@H]1N2C [Cocaine, methyl (1R,2R,3S,5S)-3-(benzoyloxy)-8-methyl-8-azabicyclo[3.2.1]octane-2-carboxylate]
[1]; human, urine
  fraction eliminated unchanged in the urine: < 5%
mice; cocaine versus cocaethylene
  potency in producing increases in locomotor activity: more potent than cocaethylene
[2]; by carboxylesterase-2
  metabolism by hydrolysis to ecgonine: minimally metabolized
[2]; by hepatic carboxylesterase-1
  fraction metabolized by hydrolysis to benzoylecgonine: 40-45%
[2]; by plasma butyrylcholinesterase and hepatic carboxylesterase-2
  fraction metabolized by hydrolysis to ecgonine methyl ester: 40-45%
[2]; by the CYP3A4 enzyme system
  fraction N-demethylated to norcocaine: 5-10%
[2]; in vivo
  volume of distribution: approximately 2 L/kg

## COC(=O)[C@H]1[C@@H](OC(=O)c2ccccc2)C[C@@H]2CC[C@H]1N2 [norcocaine]
[1]; in vivo
  total systemic exposure relative to cocaine: less than one percent

## CCOC(=O)[C@H]1[C@@H](OC(=O)c2ccccc2)C[C@@H]2CC[C@H]1N2C [ethyl cocaine, ethyl (1R,2R,3S,5S)-3-(benzoyloxy)-8-methyl-8-azabicyclo[3.2.1]octane-2-carboxylate]
Experimental animals
  elimination half-life (comparative): longer elimination half-life
  volume of distribution (comparative): larger volume of distribution
Experimental animals; versus cocaine or ethanol alone
  toxicity and arrhythmogenicity: more toxic and arrhythmogenic than either substance alone
mice; cocaine versus cocaethylene
  potency in producing convulsions: equipotent
mice; ethyl cocaine versus cocaine
  potency in producing lethality: more potent than cocaine

## COC(=O)[C@H]1[C@@H](OC(=O)c2ccccc2)C[C@@H]2CC[C@H]1N2C [cocaine HCl, methyl (1R,2R,3S,5S)-3-(benzoyloxy)-8-methyl-8-azabicyclo[3.2.1]octane-2-carboxylate hydrochloride]
Mucous membranes
  persistence of topical anesthesia: ≥ 30 min

Reference: patent publication US20210069173A1, “PREPARATION OF (-)-COCAINE HYDROCHLORIDE” (Cody Laboratories, Inc., priority 2018, published 2021)
